Reference: ChEMBL document CHEMBL1144883, “Design, synthesis, and SAR of potent and selective dipeptide-derived inhibitors for dipeptidyl peptidases” (J Med Chem, 2003)

Experiments:
Dipeptidyl peptidase 2 [1] = target: T1, Dipeptidyl peptidase 2 (Homo sapiens, UniProt Q9UHL4)
Dipeptidyl peptidase 4 [2] = target: T2, Dipeptidyl peptidase 4 (Homo sapiens, UniProt P27487)
Dipeptidyl peptidase 2 [3] = target: T1, Dipeptidyl peptidase 2; assay: Inhibitory activity of compound against Dipeptidylpeptidase II (DPP II)
Dipeptidyl peptidase 4 [4] = target: T2, Dipeptidyl peptidase 4; remark: listed apart in the source
Dipeptidyl peptidase 2 [5] = target: T1, Dipeptidyl peptidase 2; remark: listed apart in the source

T2 sequence (P27487 whole entry): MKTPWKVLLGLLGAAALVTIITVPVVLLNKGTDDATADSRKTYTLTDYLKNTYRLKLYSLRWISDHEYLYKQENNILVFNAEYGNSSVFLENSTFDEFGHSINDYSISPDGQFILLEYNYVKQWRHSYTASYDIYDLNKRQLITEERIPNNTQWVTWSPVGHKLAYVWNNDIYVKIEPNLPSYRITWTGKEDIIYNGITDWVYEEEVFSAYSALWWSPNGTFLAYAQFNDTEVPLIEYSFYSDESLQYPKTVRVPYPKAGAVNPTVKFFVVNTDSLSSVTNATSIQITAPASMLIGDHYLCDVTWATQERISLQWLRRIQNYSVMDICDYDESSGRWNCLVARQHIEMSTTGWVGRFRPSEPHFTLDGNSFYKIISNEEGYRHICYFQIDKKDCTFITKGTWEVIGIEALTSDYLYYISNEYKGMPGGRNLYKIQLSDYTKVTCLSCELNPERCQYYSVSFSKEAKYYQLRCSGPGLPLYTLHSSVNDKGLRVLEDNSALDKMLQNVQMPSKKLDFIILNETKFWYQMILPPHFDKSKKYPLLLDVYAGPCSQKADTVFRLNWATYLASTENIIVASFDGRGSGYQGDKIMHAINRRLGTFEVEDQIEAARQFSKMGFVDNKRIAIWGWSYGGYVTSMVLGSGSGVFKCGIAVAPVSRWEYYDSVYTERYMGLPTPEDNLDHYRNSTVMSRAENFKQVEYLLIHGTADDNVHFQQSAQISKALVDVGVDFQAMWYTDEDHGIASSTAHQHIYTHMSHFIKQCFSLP

IC50 (Dipeptidyl peptidase 2 [1]) | IC50 (Dipeptidyl peptidase 4 [2]) | IC50 (Dipeptidyl peptidase 2 [3]) | IC50 (Dipeptidyl peptidase 4 [4]) | IC50 (Dipeptidyl peptidase 2 [5]) | Structure (SMILES)
0.22 µM | > 1000 µM |  |  |  | NCC[C@H](N)C(=S)N1CCCCC1
88.7 µM | 250 µM |  |  |  | CCC(N)C(=O)N1CCCCC1 (stereo not drawn)
> 500 µM |  |  |  |  | O=C([C@@H]1CCCN1)N1CCCC1
52 µM | 52 µM |  |  |  | CCC(C)C(N)C(=O)N1CC=CCC1 (stereo not drawn)
0.14 µM | 289 µM |  |  |  | NCCC(N)C(=O)N1CCSC1 (stereo not drawn)
> 500 µM | > 500 µM |  |  |  | O=C(C1CCCS1)N1CCCC1 (stereo not drawn)
> 1000 µM | 360 µM |  |  |  | CCC(C)C(N)C(=O)N(C)C (stereo not drawn)
51.9 µM | > 1000 µM |  |  |  | NCCCCC(N)C(=O)N1CCCCCC1 (stereo not drawn)
299 µM | 93 µM |  |  |  | CCC(C)C(N)C(=O)N1CCC(O)C1 (stereo not drawn)
32.4 µM | 250 µM |  |  |  | CCCCC(N)C(=O)N1CCCCC1 (stereo not drawn)
4.9 µM |  |  |  |  | [N-]=[N+]=NC1CCN(C(=O)C(N)CCCCN)C1 (stereo not drawn)
78.1 µM | > 1000 µM |  |  |  | NCCCCC(N)C(=O)N1CCC(OC(=O)c2ccccc2)C1 (stereo not drawn)
500 µM | > 1000 µM |  |  |  | CCC(C)C(N)C(=O)NC1CCCC1 (stereo not drawn)
> 500 µM | 167 µM |  |  |  | CCC(C)C(N)C(=O)N(C)CC (stereo not drawn)
48 µM | 500 µM |  |  |  | NCCCCC(N)C(=O)N1CCC(O)C1 (stereo not drawn)
> 1000 µM |  |  |  |  | NCC(=O)N1CCCC1
1 µM | 0.32 µM |  |  |  | N#C[C@@H]1CCCN1C(=O)[C@@H](N)CCCCN
 | 151 µM | 0.038 µM |  |  | N#C[C@@H]1CCCCN1C(=O)C(N)CCN (stereo partly drawn)
730 µM | 50.4 µM |  |  |  | CCC(C)C(N)C(=O)N1CCC1 (stereo not drawn)
59 µM |  |  |  |  | CCC(C)C(N)C(=O)N1CCCCC1 (stereo not drawn)
213 µM | 377 µM |  |  |  | CCCN(C)C(=O)C(N)C(C)CC (stereo not drawn)
111 µM | 3.5 µM |  |  |  | CCC(C)C(N)C(=O)N1CCC(F)C1 (stereo not drawn)

IC50 (Dipeptidyl peptidase 2 [1]) | IC50 (Dipeptidyl peptidase 4 [2]) | IC50 (Dipeptidyl peptidase 2 [3]) | IC50 (Dipeptidyl peptidase 4 [4]) | IC50 (Dipeptidyl peptidase 2 [5]) | Structure (SMILES)
0.2 µM | > 1000 µM |  |  |  | NCCC[C@H](N)C(=S)N1CCCCC1
0.49 µM | > 1000 µM |  |  |  | NCCCC[C@@H](N)C(=S)N1CCCCC1
228 µM | 374 µM |  |  |  | CCC(C)C(N)C(=O)N1CCCCCC1 (stereo not drawn)
159 µM | 500 µM |  |  |  | NCCCCC(N)C(=O)N1CCC1 (stereo not drawn)
> 500 µM | > 500 µM |  |  |  | CCC(C)C(N)C(=O)N(CC)CC (stereo not drawn)
1.5 µM | 51 µM |  |  |  | N#CC1CCCCN1C(=O)C(N)CCCCN (stereo not drawn)
29.3 µM | > 1000 µM |  |  |  | NCCC(N)C(=O)N1CCNCC1 (stereo not drawn)
3 µM | 318 µM |  | 318 µM | 3 µM | NCCCCC(N)C(=O)N1CCSC1 (stereo not drawn)
1.84 µM | > 1000 µM |  |  |  | NCC(N)C(=O)N1CCCCC1 (stereo not drawn)
9.9 µM | 217 µM |  |  |  | NC(C(=O)N1CCCCC1)C1CCCCC1 (stereo not drawn)
1.6 µM | 247 µM |  |  |  | NCCCC[C@H](N)C(=O)N1CCCCC1 (stereo in doubt; 8.4)
57.1 µM | 229 µM |  |  |  | CCCC(N)C(=O)N1CCCCC1 (stereo not drawn)
288 µM |  |  |  |  | CCC(C)C(N)C(=O)N1CC=CC1 (stereo not drawn)
0.51 µM | > 1000 µM |  |  |  | NCCC(N)C(=O)N1CCOCC1 (stereo not drawn)
62 µM | 67 µM |  |  |  | NC(CO)C(=O)N1CCCCC1 (stereo not drawn)
0.63 µM | 18.1 µM |  |  |  | N=C(N)NCCCC(N)C(=O)N1CCCCC1 (stereo not drawn)
2.1 µM | 135 µM |  |  |  | NCCCC[C@H](N)C(=O)N1CCCCC1 (stereo in doubt; 9.5)
158 µM | > 500 µM |  |  |  | CCC(C)C(N)C(=O)N1CCC(OC(=O)c2ccccc2)C1 (stereo not drawn)
10.9 µM | > 500 µM |  |  |  | NCCCCC(N)C(=O)N1CC=CCC1 (stereo not drawn)
43 µM | 107 µM |  |  |  | CCC(C)C(N)C(=O)N1CCC(N=[N+]=[N-])C1 (stereo not drawn)
> 500 µM |  |  |  |  | N[C@@H](CC(=O)O)C(=O)N1CCCC1
0.75 µM | 81 µM |  |  |  | NCCCC(N)C(=O)N1CCSC1 (stereo not drawn)

Structure (SMILES) | IC50 (Dipeptidyl peptidase 2 [1]) | IC50 (Dipeptidyl peptidase 4 [2]) | IC50 (Dipeptidyl peptidase 2 [3]) | IC50 (Dipeptidyl peptidase 4 [4]) | IC50 (Dipeptidyl peptidase 2 [5])
NCCC(N)C(=O)N1CCCCC1 (stereo in doubt; 9.7) | 0.13 µM | > 1000 µM |  |  | 
O=C(CNC1CCCC1)NC(c1ccccc1)P(=O)(Oc1ccccc1)Oc1ccccc1 (stereo not drawn) |  | > 125 µM |  |  | 
NCCC(N)C(=O)N1CCCCC1 (stereo in doubt; 9.9) | 1.15 µM | 500 µM |  |  | 
NCCC(N)C(=O)N1CCCCC1 (stereo in doubt; 9.10) | 191 µM | > 1000 µM |  |  | 
NCC[C@@H](N)C(=O)N1CCCCC1 | 130 µM | > 1000 µM |  |  | 
